In US8895569B2, “Carbocyclic nucleosides and their pharmaceutical use and compositions” (Cellceutix Corporation, priority 2012, dated 2014):

Key:
IL-20 = IL-20 in tissue measured by ELISA, psoriatic xenograft SCID mice; assay type: in vivo, SCID mice bearing human psoriatic tissue; details: for IL-20: ELISA, control 178; for reduction of IL-20 concentration in tissue: versus control
Method: (§1) In order to examine efficacy of the (−) cis-[4-[2-amino-6-(cyclopropylamino)-9H-purin-9-yl]-2-cyclopentene-1-hydroxymethyl acetate in mice, male and female SCID mice (24 to 28 gms) 6 to 8 weeks old were purchased from Charles River Laboratory (Wilmington, Mass.). The animals were kept in standard rodent cages with isolator tops at 18-26° C., and a relative humidity of 30-70% on a 12 hour light/12 hour dark cycle. Mice were given rodent chow and water ad libitum. […] Suitable animals were selected for the assigned study.
(§2) Mice were subjected to total body irradiation to mildly suppress immune system at 120 rads per animal in a Gamma Cell Radiator. Mice were identified by ear punching.
(§3) 24 Hours after the TBI, a 5 mm×5 mm cut of the human psoriatic tissue was transplanted on the skin of the mice, under ketamine/xylazine anesthesia. The tissues were adherent by using a skin cement. All animals survived the anesthesia and the surgery for the experiment. The complete fusion of the tissues was achieved by day 27. During treatments, mice were observed daily for any adverse affects. Mice body weights were taken prior to treatment and every other day during the post treatment. If an animal became unwell, any treatment of that animal was suspended. If there was no recovery, the animal was sacrificed. […] Mice transplant area size measurements were taken prior to treatment and every other day during and post treatment. The same scientist was responsible for taking the measurements throughout the study.
(§4) Groups of 5 male mice and 5 female mice bearing psoriatic tissues were treated with either (−) cis-[4-[2-amino-6-(cyclopropylamino)-9H-purin-9-yl]-2-cyclopentene-1-hydroxymethyl acetate (Prurisol) alone or methotrexate (MTX) according to the schedule below. Another group of mice remained untreated to serve as controls.
IL-20 was also measured using ELISA technique and data is also shown below.

[1] = test system: Psoriasis susceptibility related RNA Gene Induced by Stress (PRINS); test: PRINS expression in human psoriatic tissue transplants on SCID mice; assay type: in vivo, SCID mice bearing human psoriatic tissue; details: for PRINS: control 49
Method: as §1, §2, §3, §4
(§5) Prurisol was administered orally (PO) to the mice, along with the topical application at 8 hour intervals on the effected area. […] In psoriasis, anti-apoptotic protein G1P3 is over expressed, which is regulated by the non-coding RNA. Psoriasis susceptibility related RNA Gene Induced by Stress (PRINS) was examined in control animal's transplants and treated ones (the expression in psoriatic plaques will be 10 times higher), and results from these studies are shown below.

[2] = Weight changes of treated mice; assay type: in vivo, SCID mice
Method: as §3, §5

Storage stability = assay type: physicochemical; details: stored at ambient temperature, protected from light
human psoriatic tissue = test: Recovery from psoriasis in SCID mice implanted with human psoriatic tissue; assay type: in vivo; details: 10 mg, one time per day or BID
Method: as §1, §2
24 Hours after the TBI, a 5 mm×5 mm cut of the human psoriatic tissue was transplanted on the skin of the mice, under ketamine/xylazine anesthesia. The tissues were adherent by using a skin cement. All animals survived the anesthesia and the surgery for the experiment. The complete fusion of the tissues was achieved by day 27. During treatments, mice were observed daily for any adverse affects. Mice body weights were taken prior to treatment and every other day during the post treatment. If an animal became unwell, any treatment of that animal was suspended. If there was no recovery, the animal was sacrificed. […]

[3] = Oral bioavailability and disposition of Prurisol; details: in vivo
[4] = Prurisol 10 mg/kg, MTX 7.5 mg/kg

Row | SMILES | IL-20 (IL-20; [4]) | reduction of IL-20 concentration in tissue (IL-20) [fold] | PRINS [1, 4] | weight loss ([2]; 5 mg/kg on days 11 to 35 and 20 mg/kg topically) | weight loss due to administration ([2]; orally (PO) along with topical application at 8 hour intervals) | IL-20 (IL-20; Prurisol × 2 (2×10 mg/kg)) | stability (Storage stability) | recovery from psoriasis (skin appearance, FIG. 6) (human psoriatic tissue) | PRINS ([1]; Prurisol × 2 (2×10 mg/kg)) | PRINS reduction in comparison to methotrexate ([1]; in vivo) | crossing the blood brain barrier [3] | metabolism route [3] | bioavailability ([3]; oral, read-out: oral bioavailability (% F)) [%]
1 | CN(Cc1cnc2nc(N)nc(N)c2n1)c1ccc(C(=O)N[C@@H](CCC(=O)O)C(=O)O)cc1 [MTX, methotrexate, reference compound] | 127 | 1.4 | 28 | – | – | – | – | – | – | – | – | – | –
2 | Nc1nc(NC2CC2)c2ncn([C@H]3C=C[C@@H](COC(=O)CO)C3)c2n1 [Prurisol] | 54 | 3 | 24 | no weight loss | within acceptable limits | 18 | stable | recovered from psoriasis | 5 | reduces PRINS significantly | capable of crossing the blood brain barrier | metabolized primarily through alcohol dehydrogenase or glucuronyl transferase | 83
